Where two headings read alike, the source gives them in different places.
How the values were obtained:
human 5-HT3A receptor = molecular target: T1, human 5-HT3A receptor (Homo sapiens, UniProt P46098); assay type: cell-based
T1 construct: expressed in transfected cells; host or cells: HEK293-AEQ17 cells (HEK 293 stably expressing apoaequorin), transient transfection
T1 sequence (P46098 24-478): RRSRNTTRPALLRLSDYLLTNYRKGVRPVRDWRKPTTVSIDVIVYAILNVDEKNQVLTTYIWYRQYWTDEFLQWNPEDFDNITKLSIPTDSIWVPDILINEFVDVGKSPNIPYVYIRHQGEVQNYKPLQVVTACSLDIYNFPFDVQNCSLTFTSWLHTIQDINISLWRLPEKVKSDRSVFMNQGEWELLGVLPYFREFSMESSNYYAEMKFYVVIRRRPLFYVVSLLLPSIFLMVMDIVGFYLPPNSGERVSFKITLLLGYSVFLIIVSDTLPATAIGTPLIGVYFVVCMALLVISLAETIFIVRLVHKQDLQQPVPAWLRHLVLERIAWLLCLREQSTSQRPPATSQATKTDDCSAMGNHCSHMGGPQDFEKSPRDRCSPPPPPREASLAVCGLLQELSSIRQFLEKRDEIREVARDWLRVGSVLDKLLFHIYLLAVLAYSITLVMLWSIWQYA
Method: Cells were seeded in 25-cm^2 cell culture flasks in Dulbecco’s modified Eagle’s medium (DMEM)/Ham’s F12 (1:1) + 10% fetal bovine serum to obtain a cell density of 50% to 70%, and the following day, transiently transfected with cDNA encoding human 5-HT3A receptor (3 µg) using Lipofectamine 2000 reagent (Thermo Fisher Scientific-Invitrogen, Waltham, MA) according to the manufacturer’s instructions. Two days after transfection, cells were harvested by centrifugation and resuspended in 0.5 ml (25-cm^2 flask) DMEM/Ham’s F12 (1:1) + 0.1% bovine serum albumin. The cell suspension was incubated with 10 μM Coelenterazine h (Thermo Fisher Scientific-Invitrogen, Waltham, MA, USA) for three hours at room temperature in the dark. […] Luminescence was measured using a Luminoskan (Thermo Fisher Scientific, Waltham, MA, USA) equipped with an injector and recorded at a sampling rate of 2 Hz for up to 60 s. At the end of the experiments, cells were lysed with Triton X-100 0.1% (v/v) and CaCl2 50 mM, and aequorin luminescence was recorded to obtain the maximum Ca^2+ response. […] Data were exported to software Origin™ 8.5 (Originlab Corp. Northampton, MA, USA).

human 5-HT3 receptor = molecular target: T2, human 5-HT3 receptor (Homo sapiens, UniProt P46098); assay: Two-electrode voltage clamp of 5-HT-induced currents in Xenopus oocytes expressing human 5-HT3A receptor; assay type: cell-based; design: host or cells: Xenopus laevis oocytes injected with cRNA
T2 sequence (P46098 24-478): T1 sequence (P46098 24-478)
Description: Mature female Xenopus laevis frogs were obtained from Xenopus leavis I, Ann Arbor, MI, USA. Experiments and methods used in this study were in accordance with the Guide for the Care and Use of Laboratory Animals of the National Institutes of Health (Bethesda, MD, USA) and our protocol (A9/08) was approved by the Institutional Animal Care and Use Committee at the College of Medicine and Health Sciences, United Arab Emirates University. Clusters of oocytes were removed surgically under benzocaine (0.03% w/v; Sigma, St.Louis, MO) anesthesia. Individually dissected oocytes were stored for 2 to 8 days in modified Barth’s solution (MBS) containing (in mM): NaCl 88; KCl 1; NaHCO3 2.4; CaCl2; 2; MgSO4 0.8; HEPES 10 (pH 7.5), supplemented with sodium pyruvate 2 mM, penicillin 10,000 IU/L, streptomycin 10 mg/L, gentamicin 50 mg/L, and theophylline 0.5 mM. […] In co-expression of subunit combinations, cDNAs for 5-HT3A and 5-HT3B subunits, were mixed in ratios of 1:1 (or 1:2), respectively. Following day, oocytes were placed in a 0.2 ml recording chamber and superfused at a constant rate of 3 to 5 ml/min. […] The oocytes were impaled with two standard glass microelectrodes filled with a 3 M KCl (1–3 MΩ) and voltage clamped at a holding potential of −70 mV using GeneClamp-500B amplifier (Axon Instruments Inc., Burlingame, CA). […] Compounds were applied by addition to the superfusate. […] Injections were performed 10 min prior to recordings using oil-driven ultra microsyringe pumps (Micro4; WPI, Inc. Sarasota, FL, USA).
The cDNA clones of the human 5-HT3A and 5-HT3B subunits were provided by OriGen Inc. (Rockville, MD). Complementary RNAs (cRNAs) were synthesized in vitro using a mMessage mMachine RNA transcription kit (Ambion Inc., Austin, TX). The quality and size of synthesized cRNAs were confirmed by denatured RNA agarose gels.
For the nonlinear curve fitting and regression fits of the dose-response curves and radio-ligand binding data, the computer software Origin™ 8.5 (Originlab Corp. Northampton, MA, USA) was used. In functional assays, average values were calculated as mean ± standard error means (S.E.M.). Statistical significance was analyzed using ANOVA or Student’s t test and post hoc Bonferroni test was used following ANOVA. Concentration-response curves were obtained by fitting the data to the logistic equation, […]

[1] = design: method as in Lee et al., 1997; Wohlrab et al., 2015; settings: assumed value; ref Lee et al., 1997; Wohlrab et al., 2015; cited from earlier work
human 5-HT3AB receptors = molecular target: T3, human 5-HT3AB receptors (Homo sapiens, UniProt O95264+P46098); assay: Two-electrode voltage clamp in Xenopus oocytes co-expressing 5-HT3A and 5-HT3B subunits; assay type: cell-based; settings: 100 µM; 3 µM 5-HT for 5-HT3A and 30 µM 5-HT for 5-HT3AB; n = 5–7, P>0.05
T3 construct: host or cells: Xenopus laevis oocytes, subunits injected at ratios 1:1 or 1:2
T3 sequence (P46098 24-478): T1 sequence (P46098 24-478)
T3 sequence (O95264 22-441): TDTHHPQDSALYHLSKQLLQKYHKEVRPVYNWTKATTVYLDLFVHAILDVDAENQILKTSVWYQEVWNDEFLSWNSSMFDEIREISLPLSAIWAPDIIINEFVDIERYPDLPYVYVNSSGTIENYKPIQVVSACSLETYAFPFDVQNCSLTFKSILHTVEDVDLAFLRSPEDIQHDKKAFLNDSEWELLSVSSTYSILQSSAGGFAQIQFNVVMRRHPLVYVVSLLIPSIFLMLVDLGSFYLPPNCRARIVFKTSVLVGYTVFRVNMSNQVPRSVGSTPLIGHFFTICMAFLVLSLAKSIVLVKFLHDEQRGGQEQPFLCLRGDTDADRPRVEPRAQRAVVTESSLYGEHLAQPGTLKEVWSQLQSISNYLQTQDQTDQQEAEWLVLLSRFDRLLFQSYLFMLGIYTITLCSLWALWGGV
Description: Mature female Xenopus laevis frogs were obtained from Xenopus leavis I, Ann Arbor, MI, USA. Experiments and methods used in this study were in accordance with the Guide for the Care and Use of Laboratory Animals of the National Institutes of Health (Bethesda, MD, USA) and our protocol (A9/08) was approved by the Institutional Animal Care and Use Committee at the College of Medicine and Health Sciences, United Arab Emirates University. Clusters of oocytes were removed surgically under benzocaine (0.03% w/v; Sigma, St.Louis, MO) anesthesia. Individually dissected oocytes were stored for 2 to 8 days in modified Barth’s solution (MBS) containing (in mM): NaCl 88; KCl 1; NaHCO3 2.4; CaCl2; 2; MgSO4 0.8; HEPES 10 (pH 7.5), supplemented with sodium pyruvate 2 mM, penicillin 10,000 IU/L, streptomycin 10 mg/L, gentamicin 50 mg/L, and theophylline 0.5 mM. Human 5-HT3A receptor cRNA (3 ng in 50 nl) was injected into each oocyte as described before ([Ashoor et al., 2013]). In co-expression of subunit combinations, cDNAs for 5-HT3A and 5-HT3B subunits, were mixed in ratios of 1:1 (or 1:2), respectively. […] Current responses were digitized by A/D converter and analyzed using pClamp 10.4 (Molecular Devices-Axon Instruments, San Jose, CA USA) or Origin™ (Originlab Corp. Northampton, MA, USA), run on an IBM/PC. […]

[2] = design: method as in Rollyson et al., 2014; Swain and Kumar Mishra, 2015; settings: ref Rollyson et al., 2014; Swain and Kumar Mishra, 2015; cited from earlier work
Ca2+ channels = settings: cited from earlier work
K+ channels = settings: cited from earlier work
[3] = system: voltage-gated Na+ channels; settings: cited from earlier work

For `NCCc1c[nH]c2ccc(O)cc12` [5-HT, 5-hydroxytryptamine], the “luminescence activation in cells not transfected with 5-HT3” value (human 5-HT3A receptor; 30 μM, coelenterazine h-loaded HEK-293-AEQ17 cells, n = 4) was “did not cause luminescence activation” and the “slope of the aequorin concentration-response curve” value (human 5-HT3A receptor; HEK-293-AEQ17 cells transfected with human 5-HT3 receptor) was 2.7.
In the case of `CN1[C@@H]2CC[C@H]1C[C@@H](OC(=O)c1cc(Cl)cc(Cl)c1)C2` [MDL72222, Tropanyl 3,5-dichlorobenzoate], the “inhibition of fast inward currents activated by 5-HT (1 μM) or 2-methyl-5-HT (10 μM)” value (human 5-HT3 receptor; 0.5 µM, n = 7) is reported as “completely inhibited”.
For `COc1cc(CNC(=O)CCCC/C=C/C(C)C)ccc1O` [capsaicin, (E)-N-[(4-Hydroxy-3-methoxyphenyl)methyl]-8-methyl-6-nonenamide], the “fraction of topically applied capsaicin absorbed into the skin” value [1] is given as 2%, the “extent of inhibition among 5-HT3A, 5-HT3AB (1:1) and 5-HT3AB (1:2) receptors” value (human 5-HT3AB receptors) is given as “not statistically different” and the “LogP (octanol–water partition coefficient)” value [2] is given as 3.8. The IC50 (Ca2+ channels; ref Castillo et al., 2007) was 38 µM, the IC50 (Ca2+ channels; ref Kuenzi and Dale, 1996) was 44 µM and the IC50 (K+ channels; ref Aréchiga-Figueroa et al., 2017) was 10 µM. The IC50 (K+ channels; ref Grissmer et al., 1994) was 158 µM, the IC50 (K+ channels; ref Kuenzi and Dale, 1996) was 21 µM and the IC50 (K+ channels; ref Wu et al., 2011) was 103 µM. For the same molecule, the IC50 ([3]; ref Bielefeldt, 2000) was 40 µM, the IC50 ([3]; ref Duan et al., 2007) was 39 µM and the IC50 ([3]; ref Tomohiro et al., 2013) was 100 µM. The IC50 ([3]; ref Wang et al., 2007) was 76 µM.
With `Oc1cc2c(cc1O)CN(C(=S)NCCc1ccc(Cl)cc1)CCC2` [capsazepine] the “change in amplitudes of 5-HT3 receptor-mediated currents, compound alone” value (human 5-HT3 receptor; 10 µM, 5-HT 1 µM, n = 4) was “did not cause any significant change”.
With `COc1cc(CNC(=O)CCCCCCC(C)C)ccc1O` [dihydrocapsaicin, Dihydrocapsaicin] the inhibition at 100 µM (human 5-HT3 receptor; read-out: 5-HT3 receptors inhibited to (% )) was 62%.
For `COc1cc(C=O)ccc1O` [vanillin], the “effect on 5-HT3 receptor currents” value (human 5-HT3 receptor; 100 µM for 15 min, n = 8, P>0.05) was “did not affect”.

From article PMC7490547 (Frontiers in Pharmacology, 2020)
